# “And” between values parts separate entries of the source, which are not always exact repeats. Equal entries are not always repeated.
# Legend:
# [1] = target: T1, ALP (Bos taurus, UniProt P19111); assay: Dephosphorylated efficacy of P-CyPt towards varying concentrations of ALP (NIR fluorescence); type: biochemical
# T1 construct: Alkaline phosphatase from bovine; purchased Sigma-Aldrich; host or cells: bovine intestinal mucosa (tissue-derived)
# [2] = tested on: HeLa MCTS; assay: MCTS imaging and cytotoxicity (penetration, PI staining); type: cell-based, human; conditions: 10 μM 1 h, then 24 h
# Method: Supplementary Figure 25. Flow cytometric analysis of HeLa cell death. (a) Gating strategy applied for flow cytometric analysis. (b) Representative flow cytometric analysis of HeLa cells by Annexin V-FITC/PI staining. HeLa cells were treated with PBS, CDDP, PtIVNPs or P-CyPt (20 μM) for 2 h, washed with cold PBS for three times, and then continued incubation in refresh blank DMEM medium for another 48 h. The cells were then stained with the Annexin V-FITC/PI kit, and analyzed by flow cytometry. One representative experiment out of two is shown.
# Supplementary Figure 26. Evaluation of the penetration and cytotoxicity of PtIVNPs toward HeLa MCTS. MCTS were incubated with PtIVNPs (10 μM) for 1 h, then washed with PBS buffer for three times, followed by incubation for another 24 h.
# The MCTs were then co-stained with PI. […]
# μm. […] The fluorescence images of the MCTS were captured on a Leica TCS SP8 confocal laser scanning microscope, microscope (TCS SP8 STED 3X) with 10x/0.4 dry lens (Leica), and captured at RGB on a HyD detector (Leica Dmi8) under PI and Cy5.5 channels. […]
# were sacrificed after 4 h. […] The fluorescence images of these organs and tumors were acquired with the IVIS Lumina XR III imaging system using a 660 nm excitation filter and a 750 ± 50 nm emission filter. […]
# [3] = tested on: ALP; assay: Enzyme kinetics of P-CyPt towards ALP (Lineweaver-Burk); type: biochemical; conditions: Supplementary Fig. 5b; for 1/v, mean: mean of 3 samples
# [4] = target: T1, ALP; assay: as above; type: biochemical; conditions: ALP (20 U/L)
# T1 sequence (P19111 20-533): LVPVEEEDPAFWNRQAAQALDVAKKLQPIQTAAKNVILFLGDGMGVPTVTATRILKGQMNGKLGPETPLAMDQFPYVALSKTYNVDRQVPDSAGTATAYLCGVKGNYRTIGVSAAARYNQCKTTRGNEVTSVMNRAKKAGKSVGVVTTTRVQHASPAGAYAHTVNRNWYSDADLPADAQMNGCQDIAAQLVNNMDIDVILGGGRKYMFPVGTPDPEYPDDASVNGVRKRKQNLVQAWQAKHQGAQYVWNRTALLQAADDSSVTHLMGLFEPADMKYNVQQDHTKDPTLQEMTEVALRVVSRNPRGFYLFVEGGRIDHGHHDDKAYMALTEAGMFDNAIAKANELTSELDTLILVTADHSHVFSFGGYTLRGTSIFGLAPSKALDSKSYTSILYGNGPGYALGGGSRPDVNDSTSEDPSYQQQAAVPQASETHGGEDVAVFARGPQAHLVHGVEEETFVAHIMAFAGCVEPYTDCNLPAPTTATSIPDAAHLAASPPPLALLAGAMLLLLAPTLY
structure (smiles),measurement,setting,value
CC1(C)C(/C=C/C2=C3Oc4cc(OP(=O)(O)O)c(Cl)cc4C=C3CCC2)=[N+](CCCNC(=O)[C@@H](Cc2ccccc2)NC(=O)[C@@H](Cc2ccccc2)NC(=O)CCC(=O)[O][Pt]([NH2])([NH2])([OH])([Cl])[Cl])c2ccccc21 [P-CyPt],Normalized FL intensity,"[1]; ALP 5 U/L, 10 min, mean of 3 samples",1.71
same,Normalized FL intensity,"[1]; ALP 5 U/L, 10 min, single samples",1.648 and 1.73 and 1.752
same,Normalized FL intensity,"[1]; ALP 5 U/L, 12 min, mean of 3 samples",1.864
same,Normalized FL intensity,"[1]; ALP 5 U/L, 12 min, single samples",1.757 and 1.865 and 1.97
same,Normalized FL intensity,"[1]; ALP 5 U/L, 14 min, mean of 3 samples",1.881
same,Normalized FL intensity,"[1]; ALP 5 U/L, 14 min, single samples",1.813 and 1.9087 and 1.922
same,Normalized FL intensity,"[1]; ALP 10 U/L, 10 min, mean of 3 samples",2.116
same,Normalized FL intensity,"[1]; ALP 10 U/L, 10 min, single samples",2.078 and 2.183 and 2.087
same,Normalized FL intensity,"[1]; ALP 10 U/L, 12 min, mean of 3 samples",2.286
same,Normalized FL intensity,"[1]; ALP 10 U/L, 12 min, single samples",2.204 and 2.296 and 2.357
same,Normalized FL intensity,"[1]; ALP 10 U/L, 14 min, mean of 3 samples",2.562
same,Normalized FL intensity,"[1]; ALP 10 U/L, 14 min, single samples",2.47 and 2.6 and 2.617
same,Normalized FL intensity,"[1]; ALP 10 U/L, 16 min, mean of 3 samples",2.829
same,Normalized FL intensity,"[1]; ALP 10 U/L, 16 min, single samples",2.713 and 2.865 and 2.9087
same,Normalized FL intensity,"[1]; ALP 20 U/L, 10 min, mean of 3 samples",2.617
same,Normalized FL intensity,"[1]; ALP 20 U/L, 10 min, single samples",2.53 and 2.596 and 2.726
same,Normalized FL intensity,"[1]; ALP 20 U/L, 12 min, mean of 3 samples",2.996
same,Normalized FL intensity,"[1]; ALP 20 U/L, 12 min, single samples",2.926 and 2.987 and 3.074
same,Normalized FL intensity,"[1]; ALP 20 U/L, 14 min, mean of 3 samples",3.404
same,Normalized FL intensity,"[1]; ALP 20 U/L, 14 min, single samples",3.322 and 3.383 and 3.5087
same,Normalized FL intensity,"[1]; ALP 20 U/L, 16 min, mean of 3 samples",3.783
same,Normalized FL intensity,"[1]; ALP 20 U/L, 16 min, single samples",3.7 and 3.73 and 3.917
same,Normalized FL intensity,"[1]; ALP 50 U/L, 10 min, mean of 3 samples",3.187
same,Normalized FL intensity,"[1]; ALP 50 U/L, 10 min, single samples",3.135 and 3.157 and 3.27
same,Normalized FL intensity,"[1]; ALP 50 U/L, 12 min, mean of 3 samples",3.6029
same,Normalized FL intensity,"[1]; ALP 50 U/L, 12 min, single samples",3.483 and 3.583 and 3.743
same,Normalized FL intensity,"[1]; ALP 50 U/L, 14 min, mean of 3 samples",4.096
same,Normalized FL intensity,"[1]; ALP 50 U/L, 14 min, single samples",3.9913 and 4.022 and 4.274
same,Normalized FL intensity,"[1]; ALP 50 U/L, 16 min, mean of 3 samples",4.5913
same,Normalized FL intensity,"[1]; ALP 50 U/L, 16 min, single samples",4.43 and 4.465 and 4.878
same,Normalized FL intensity,"[1]; ALP 100 U/L, 10 min, mean of 3 samples",4.5971
same,Normalized FL intensity,"[1]; ALP 100 U/L, 10 min, single samples",4.522 and 4.557 and 4.713
same,Normalized FL intensity,"[1]; ALP 100 U/L, 12 min, mean of 3 samples",5.171
same,Normalized FL intensity,"[1]; ALP 100 U/L, 12 min, single samples",4.861 and 5.296 and 5.357
same,Normalized FL intensity,"[1]; ALP 100 U/L, 14 min, mean of 3 samples",5.964
same,Normalized FL intensity,"[1]; ALP 100 U/L, 14 min, single samples",5.887 and 5.948 and 6.057
same,Normalized FL intensity,"[1]; ALP 100 U/L, 16 min, mean of 3 samples",6.53
same,Normalized FL intensity,"[1]; ALP 100 U/L, 16 min, single samples",6.426 and 6.513 and 6.652
same,Normalized FL intensity,"[1]; ALP 200 U/L, 10 min, mean of 3 samples",5.588
same,Normalized FL intensity,"[1]; ALP 200 U/L, 10 min, single samples",5.343 and 5.613 and 5.8087
same,Normalized FL intensity,"[1]; ALP 200 U/L, 12 min, mean of 3 samples",6.483
same,Normalized FL intensity,"[1]; ALP 200 U/L, 12 min, single samples",6.217 and 6.557 and 6.674
same,Normalized FL intensity,"[1]; ALP 200 U/L, 14 min, mean of 3 samples",6.862
same,Normalized FL intensity,"[1]; ALP 200 U/L, 14 min, single samples",6.857 and 6.626 and 7.104
same,Normalized FL intensity,"[1]; ALP 500 U/L, 10 min, mean of 3 samples",6.133
same,Normalized FL intensity,"[1]; ALP 500 U/L, 10 min, single samples",5.804 and 6.287 and 6.3087
same,Normalized FL intensity,"[1]; ALP 500 U/L, 12 min, mean of 3 samples",6.81
same,Normalized FL intensity,"[1]; ALP 500 U/L, 12 min, single samples",6.661 and 6.722 and 7.048
same,Normalized FL intensity,"[1]; ALP 500 U/L, 14 min, mean of 3 samples",7.207
same,Normalized FL intensity,"[1]; ALP 500 U/L, 14 min, single samples",6.848 and 7.161 and 7.613
same,penetration / cell-kill depth in MCTS,[2],~ 200 μm
same,"1/v, single samples (sample-1 to sample-3)",[3]; 1/S [μM] 0.2,7.131 min/µM and 6.758 min/µM and 6.78 min/µM
same,"1/v, mean",[3]; 1/S [μM] 0.2,6.889 min/µM
same,"1/v, single samples (sample-1 to sample-3)",[3]; 1/S [μM] 0.25,8.023 min/µM and 8.58 min/µM and 6.977 min/µM
same,"1/v, mean",[3]; 1/S [μM] 0.25,7.860 min/µM
same,"1/v, single samples (sample-1 to sample-3)",[3]; 1/S [μM] 0.333333,10.0959 min/µM and 10.7285 min/µM and 10.3072 min/µM
same,"1/v, mean",[3]; 1/S [μM] 0.333333,10.377 min/µM
same,"1/v, single samples (sample-1 to sample-3)",[3]; 1/S [μM] 0.5,12.1342 min/µM and 13.921 min/µM and 15.7076 min/µM
same,"1/v, mean",[3]; 1/S [μM] 0.5,13.921 min/µM
same,"1/v, single samples (sample-1 to sample-3)",[3]; 1/S [μM] 1,22.8038 min/µM and 25.6597 min/µM and 28.5158 min/µM
same,"1/v, mean",[3]; 1/S [μM] 1,25.660 min/µM
same,"1/v, single samples (sample-1 to sample-3)",[3]; 1/S [μM] 2,49.1562 min/µM and 54.4739 min/µM and 57.4911 min/µM
same,"1/v, mean",[3]; 1/S [μM] 2,53.707 min/µM
same,Vmax,[4],0.55 µM/min
same,Km,[4]; P-CyPt 0.5-5.0 μM,14 µM
